The compounds below were run against PIK3CG (human) (UniProt P48736) (assay: Inhibition of PIK3CG Kinase Activity).
PIK3CG (human), sequence (P48736 whole entry, looked up): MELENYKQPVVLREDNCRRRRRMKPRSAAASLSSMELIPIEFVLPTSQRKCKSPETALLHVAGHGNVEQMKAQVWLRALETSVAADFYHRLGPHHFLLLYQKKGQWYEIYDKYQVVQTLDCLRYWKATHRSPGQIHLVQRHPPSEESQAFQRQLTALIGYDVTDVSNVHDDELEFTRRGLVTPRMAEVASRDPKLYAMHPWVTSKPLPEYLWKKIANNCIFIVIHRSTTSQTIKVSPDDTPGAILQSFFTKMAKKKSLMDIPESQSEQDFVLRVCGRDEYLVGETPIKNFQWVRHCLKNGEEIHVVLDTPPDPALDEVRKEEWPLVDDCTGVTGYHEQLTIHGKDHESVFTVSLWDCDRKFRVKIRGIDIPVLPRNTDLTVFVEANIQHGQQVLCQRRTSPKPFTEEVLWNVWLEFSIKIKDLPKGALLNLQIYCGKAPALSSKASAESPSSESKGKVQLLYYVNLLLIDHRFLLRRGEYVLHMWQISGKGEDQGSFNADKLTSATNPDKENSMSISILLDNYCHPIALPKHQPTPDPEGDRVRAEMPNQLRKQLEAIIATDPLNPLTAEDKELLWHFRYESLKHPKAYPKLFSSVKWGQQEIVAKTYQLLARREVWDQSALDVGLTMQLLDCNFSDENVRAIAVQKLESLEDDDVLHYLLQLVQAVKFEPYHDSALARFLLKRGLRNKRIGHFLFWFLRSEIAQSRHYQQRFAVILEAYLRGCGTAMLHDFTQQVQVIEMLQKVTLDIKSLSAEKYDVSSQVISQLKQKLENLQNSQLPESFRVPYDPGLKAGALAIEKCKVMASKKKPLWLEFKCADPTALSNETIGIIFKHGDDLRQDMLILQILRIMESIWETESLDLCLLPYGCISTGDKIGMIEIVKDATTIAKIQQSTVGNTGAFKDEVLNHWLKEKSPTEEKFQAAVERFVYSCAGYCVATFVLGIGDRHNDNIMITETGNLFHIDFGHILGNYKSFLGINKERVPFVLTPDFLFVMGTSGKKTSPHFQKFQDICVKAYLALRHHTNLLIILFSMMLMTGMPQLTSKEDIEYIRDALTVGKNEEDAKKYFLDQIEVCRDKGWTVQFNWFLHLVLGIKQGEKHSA

Row | SMILES | IC50 [nM]
1 | CC(=O)Nc1nc2c(s1)-c1c(c(C3(C)CC3)nn1-c1ccc(C(=O)N[C@H]3CC[C@@H](N4CCCC4)CC3)cc1Cl)CC2 | < 600
2 | CC(=O)Nc1nc2c(s1)-c1c(c(C3CC3)nn1-c1ccc(C(=O)N[C@@H]3CCN(CC4CCCC4)C3)c(F)c1)CC2 | < 600
3 | CC(=O)Nc1nc2c(s1)-c1c(c(C3CC3)nn1-c1ccc(N(C)C(=O)[C@H]3CC[C@@H](N4CCCC4)CC3)cc1Cl)CC2 | < 600
4 | CCCN1CCC(C(=O)N(C)c2ccc(-n3nc(C4CC4)c4c3-c3sc(NC(C)=O)nc3CC4)c(Cl)c2)CC1 | < 600
5 | CC(=O)Nc1nc2c(s1)-c1c(c(C3CC3)nn1C1CCN(C(=O)C3CCN(C4CCCC4)CC3)CC1)CC2 | < 600
6 | CC(=O)Nc1nc2c(s1)-c1c(c(C3CC3)nn1-c1ccc(C(=O)N(C)[C@@H]3CCN(C4CCCC4)C3)cc1F)CC2 | < 600
7 | CC(=O)Nc1nc2c(s1)-c1c(c(C3CC3)nn1-c1ccc(C(=O)NC3CCN(C4CCCCC4)CC3)c(F)c1)CC2 | < 600
8 | CC(=O)Nc1nc2c(s1)-c1c(c(C3CC3)nn1-c1ccc(C(=O)NC[C@@H]3CCCN3)c(Cl)c1)CC2 | < 600
9 | CC(=O)Nc1nc2c(s1)-c1c(c(C3CC3)nn1-c1ccc(C(=O)NC[C@@H]3CCN(C4CCCC4)C3)c(Cl)c1)CC2 | < 600
10 | CC(=O)Nc1nc2c(s1)-c1c(c(C3CC3)nn1-c1ccc(C(=O)N[C@H]3CC[C@@H](N(C)CC4CC4)CC3)c(C)c1)CC2 | < 600
11 | CC(=O)Nc1nc2c(s1)-c1c(c(C3CC3)nn1-c1ccc(C(=O)N(C)[C@H]3CCN(C4CCCCC4)C3)c(C)c1)CC2 | < 600
12 | CC(=O)Nc1nc2c(s1)-c1c(c(C3CC3)nn1-c1ccc(C(=O)N[C@H]3CC[C@@H](N4CCCC4)CC3)cc1Cl)CC2 | < 600
13 | COc1cc(-n2nc(C3CC3)c3c2-c2sc(NC(C)=O)nc2CC3)ccc1C(=O)N1CCC(N2CCCC2)CC1 | < 600
14 | CC(=O)Nc1nc2c(s1)-c1c(c(C3CC3)nn1-c1ccc(C(=O)NC[C@@H]3CCCN3CC3CCCC3)c(Cl)c1)CC2 | < 600
15 | CC(=O)Nc1nc2c(s1)-c1c(c(C3CC3)nn1-c1ccc(C(=O)N[C@H]3CCN(C4CCCC4)C3)c(Cl)c1)CC2 | < 600
16 | CC(=O)Nc1nc2c(s1)-c1c(c(C3CC3)nn1-c1ccc(C(=O)NC3CCN(CC4CCCC4)CC3)cc1C)CC2 | < 600
17 | CC(=O)Nc1nc2c(s1)-c1c(c(C3CC3)nn1-c1ccc(C(=O)N[C@H]3CC[C@@H](N4CCCCC4)CC3)cc1Cl)CC2 | < 600
18 | CC(=O)Nc1nc2c(s1)-c1c(c(C3CCC3)nn1-c1ccc(C(=O)NC3CCN(C4CCCC4)CC3)cc1Cl)CC2 | < 600
19 | CC(=O)Nc1nc2c(s1)-c1c(c(C3CC3)nn1-c1ccc(C(=O)N[C@@H]3CCN(C4CCCCC4)C3)cc1Cl)CC2 | < 600
20 | CNc1ccc(-n2nc(C3CC3)c3c2-c2sc(NC(C)=O)nc2CC3)c(Cl)c1 | < 600
21 | CNC(=O)c1ccc(-n2nc(C3CCCC3)c3c2-c2sc(NC(C)=O)nc2CC3)c(Cl)c1 | < 600
22 | CC(=O)Nc1nc2c(s1)-c1c(c(C3CC3)nn1-c1ccc(C(=O)N3CCC(N4CCCC4)CC3)cc1Cl)CC2 | < 600
23 | CC(=O)Nc1nc2c(s1)-c1c(c(C3CC3)nn1-c1ccc(C(=O)N(C)Cc3ccncc3)cc1Cl)CC2 | < 600
24 | CC(=O)Nc1nc2c(s1)-c1c(c(C3CCC3)nn1-c1ccc(C(=O)NC3CCN(C(C)C)CC3)cc1Cl)CC2 | < 600
25 | CC(=O)Nc1nc2c(s1)-c1c(c(C3CC3)nn1-c1ccc(CC(=O)N[C@@H]3CCN(C4CCCC4)C3)cc1Cl)CC2 | < 600

Row | SMILES | IC50 [nM]
26 | CC(=O)Nc1nc2c(s1)-c1c(c(C3CC3)nn1-c1ccc(CC(=O)N(C)[C@H]3CC[C@@H](N4CCCC4)CC3)cc1Cl)CC2 | < 600
27 | CC(=O)Nc1nc2c(s1)-c1c(c(C3CC3)nn1-c1ccc(C(=O)NC[C@H]3CCN(CC4CCCC4)C3)c(Cl)c1)CC2 | < 600
28 | CC(=O)Nc1nc2c(s1)-c1c(c(C3CC3)nn1-c1ccc(C(=O)N3CCC(N(C)C4CCCC4)CC3)c(C)c1)CC2 | < 600
29 | CC(=O)Nc1nc2c(s1)-c1c(c(C3CC3)nn1-c1ccc(C(=O)N(C)[C@@H]3CCN(CC4CCCC4)C3)cc1F)CC2 | < 600
30 | CCCN1CCC(NC(=O)c2ccc(-n3nc(C4CC4)c4c3-c3sc(NC(C)=O)nc3CC4)c(Cl)c2)CC1 | < 600
31 | CC(=O)Nc1nc2c(s1)-c1c(c(C3CC3)nn1-c1ccc(C(=O)N(C)[C@H]3CC[C@@H](N(C)CC4CC4)CC3)c(C)c1)CC2 | < 600
32 | CC(=O)Nc1nc2c(s1)-c1c(c(C3CC3)nn1-c1ccc(C(=O)NC3CCN(C4CCOCC4)CC3)c(F)c1)CC2 | < 600
33 | CCN(C(=O)c1ccc(-n2nc(C3CC3)c3c2-c2sc(NC(C)=O)nc2CC3)cc1Cl)[C@H]1CC[C@@H](N2CCCC2)CC1 | < 600
34 | CC(=O)Nc1nc2c(s1)-c1c(c(C3CC3)nn1-c1ccc(C(=O)N(C)[C@H]3CC[C@@H](N4CCCCC4)CC3)cc1Cl)CC2 | < 600
35 | CC(=O)Nc1nc2c(s1)-c1c(c(C3CC3)nn1-c1ccc(C(=O)N[C@H]3CC[C@@H](N4CCOCC4)CC3)c(F)c1)CC2 | < 600
36 | CC(=O)Nc1nc2c(s1)-c1c(c(C3CC3)nn1-c1ccc(C(=O)NC3CCN(C4CCCCC4)CC3)c(Cl)c1)CC2 | < 600
37 | CC(=O)Nc1nc2c(s1)-c1c(c(C3CC3)nn1-c1ccc(C(=O)N(C)[C@@H]3CCN(CC4CCCC4)C3)c(C)c1)CC2 | < 600
38 | CC(=O)Nc1nc2c(s1)-c1c(c(C3CC3)nn1-c1ccc(NCC3CCN(C(=O)OC(C)(C)C)CC3)cc1Cl)CC2 | < 600
39 | CC(=O)Nc1nc2c(s1)-c1c(c(C3CCC3)nn1-c1ccc(C(=O)N[C@H]3CC[C@@H](N4CCCCC4)CC3)cc1Cl)CC2 | < 600
40 | CC(=O)Nc1nc2c(s1)-c1c(c(C3CC3)nn1-c1ccc(C(=O)N[C@H]3CC[C@@H](N4CCCCC4)CC3)c(Cl)c1)CC2 | < 600
41 | CC(=O)Nc1nc2c(s1)-c1c(c(C3CC3)nn1C1CCN(C(=O)N3CCC(N(C)C)CC3)CC1)CC2 | < 600
42 | CC(=O)Nc1nc2c(s1)-c1c(c(C3CC3)nn1-c1ccc(C(=O)N(C)[C@@H]3CCN(C4CCCC4)C3)c(C)c1)CC2 | < 600
43 | CC(=O)Nc1nc2c(s1)-c1c(c(C3CC3)nn1-c1ccc(C(=O)N(C)[C@H]3CC[C@@H](N4CCCCC4)CC3)c(C)c1)CC2 | < 600
44 | CC(=O)Nc1nc2c(s1)-c1c(c(C3(C)CC3)nn1-c1ccc(C(=O)NC3CCN(C4CCCC4)CC3)cc1Cl)CC2 | < 600
45 | CC(=O)Nc1nc2c(s1)-c1c(c(C3CC3)nn1-c1ccc(C(=O)NC3CCN(CC4CCCCC4)CC3)cc1Cl)CC2 | < 600
46 | CC(=O)Nc1nc2c(s1)-c1c(c(C3CC3)nn1-c1ccc(C(=O)NC[C@H]3CCCN3C3CCCC3)c(Cl)c1)CC2 | < 600
47 | CC(=O)Nc1nc2c(s1)-c1c(c(C3CC3)nn1-c1ccc(C(=O)N(C)[C@H]3CC[C@@H](N(C)CC4CC4)CC3)cc1C)CC2 | < 600
48 | CC(=O)Nc1nc2c(s1)-c1c(c(C3CC3)nn1-c1ccc(C(=O)NC3CCN(C4CCCC4)CC3)c(F)c1)CC2 | < 600
49 | CC(=O)Nc1nc2c(s1)-c1c(c(C3CC3)nn1-c1ccc(C(=O)NC3CCN(CC4CCCCC4)CC3)cc1F)CC2 | < 600
50 | CC(=O)Nc1nc2c(s1)-c1c(c(C3CC3)nn1-c1ccc(NCC3CCN(C4CCCC4)CC3)cc1Cl)CC2 | < 600

Row | SMILES | IC50 [nM]
51 | CC(=O)Nc1nc2c(s1)-c1c(c(C3CC3)nn1C1CCN(C(=O)C3CCCCC3)CC1)CC2 | < 600
52 | CC(=O)Nc1nc2c(s1)-c1c(c(C3CC3)nn1-c1ccc(C(=O)N[C@H]3CCN(C4CCCCC4)C3)cc1F)CC2 | < 600
53 | CC(=O)Nc1nc2c(s1)-c1c(c(C3CC3)nn1-c1ccc(C(=O)N(C)[C@H]3CC[C@@H](N(C)CC4CCCC4)CC3)c(C)c1)CC2 | < 600
54 | CC(=O)Nc1nc2c(s1)-c1c(c(C3CC3)nn1-c1ccc(C(=O)N3CCC(CN4CCCC4)CC3)c(Cl)c1)CC2 | < 600
55 | CC(=O)Nc1nc2c(s1)-c1c(c(C3CC3)nn1-c1ccc(C(=O)N[C@H]3CC[C@@H](N(C)CC4CC4)CC3)cc1C)CC2 | < 600
56 | CC(=O)Nc1nc2c(s1)-c1c(c(C3CCCC3)nn1-c1ccc(C(=O)N(C)[C@H]3CC[C@@H](N4CCCC4)CC3)cc1Cl)CC2 | < 600
57 | CC(=O)Nc1nc2c(s1)-c1c(c(C3CCC3)nn1-c1ccc(C(=O)NC3CCN(C4CCOCC4)CC3)cc1Cl)CC2 | < 600
58 | CCCN1CCC(NC(=O)C2CCC(n3nc(C4CC4)c4c3-c3sc(NC(C)=O)nc3CC4)CC2)CC1 (stereo not drawn) | < 600
59 | CCCN1CCC(NC(=O)c2ccc(-n3nc(C4CC4)c4c3-c3sc(NC(C)=O)nc3CC4)c(C)c2)CC1 | < 600
60 | CC(=O)Nc1nc2c(s1)-c1c(c(C3CC3)nn1-c1ccc(C(=O)N[C@H]3CC[C@@H](N(C)CC4CC4)CC3)c(Cl)c1)CC2 | < 600
61 | CC(=O)Nc1nc2c(s1)-c1c(c(C3CC3)nn1-c1ccc(NCC3CCCCC3)cc1Cl)CC2 | < 600
62 | CC(=O)Nc1nc2c(s1)-c1c(c(C3CC3)nn1-c1ccc(C(=O)N[C@H]3CC[C@@H](C(N)=O)CC3)cc1Cl)CC2 | < 600
63 | CC(=O)Nc1nc2c(s1)-c1c(c(C3CC3)nn1-c1ccc(C(=O)N(C)[C@H]3CC[C@@H](N(C)CC4CCCC4)CC3)cc1Cl)CC2 | < 600
64 | CC(=O)Nc1nc2c(s1)-c1c(c(C3CC3)nn1-c1ccc(CC(=O)NC3CCCCC3)cc1Cl)CC2 | < 600
65 | CC(=O)Nc1nc2c(s1)-c1c(c(C3CC3)nn1-c1ccc(C(=O)N(C)C[C@@H]3CCN(C4CCCC4)C3)c(Cl)c1)CC2 | < 600
66 | CC(=O)Nc1nc2c(s1)-c1c(c(C3CC3)nn1-c1ccc(C(=O)NC[C@@H]3CCNC3)c(Cl)c1)CC2 | < 600
67 | CC(=O)Nc1nc2c(s1)-c1c(c(C3CC3)nn1-c1ccc(C(=O)N(C)[C@H]3CC[C@@H](N(C)CC4CCCC4)CC3)c(Cl)c1)CC2 | < 600
68 | CC(=O)Nc1nc2c(s1)-c1c(c(C3CC3)nn1-c1ccc(C(=O)N[C@H]3CC[C@@H](N(C)CC4CCCC4)CC3)cc1Cl)CC2 | < 600
69 | CC(=O)Nc1nc2c(s1)-c1c(c(C3CC3)nn1C1CCC(C(=O)NC3CCCCC3)CC1)CC2 (stereo not drawn) | < 600
70 | CC(=O)Nc1nc2c(s1)-c1c(c(C3CC3)nn1-c1ccc(NCC3CCN(C)CC3)cc1Cl)CC2 | < 600
71 | CC(=O)Nc1nc2c(s1)-c1c(c(C3CC3)nn1-c1ccc(C(=O)N(C)[C@H]3CC[C@@H](N(C)CC4CCCC4)CC3)cc1C)CC2 | < 600
72 | CC(=O)Nc1nc2c(s1)-c1c(c(C3CC3)nn1-c1ccc(C(N)=O)cc1Cl)CC2 | < 600
73 | CC(=O)Nc1nc2c(s1)-c1c(c(C3CC3)nn1-c1ccc(C(=O)N[C@H]3CC[C@@H](N4CCOCC4)CC3)c(C)c1)CC2 | < 600
